# Measured values published in US20100298141A1, “SUBSTITUTED PYRIDINE N-OXIDE HERBICIDES” (E. I. DU PONT DE NEMOURS AND COMPANY, priority 2007, published 2010).
# Assays:
# morningglory = experiment: Test A pre-/postemergence greenhouse test; type: in vivo, Ipomoea spp.; conditions: for Morningglory plant response rating: 0 to 100 scale
# Summary of the method: (§1)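 Pots of loam–sand soil sown with the test species are sprayed preemergence on the soil surface; emerged seedlings (1–2 leaves, 2–10 cm) are sprayed postemergence at the same time. The vehicle is a non-phytotoxic solvent mixture with surfactant. Injury is scored visually after ~10 d in greenhouse.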
# woolly cupgrass = experiment: Test C pre-/postemergence test; type: in vivo, Eriochloa villosa
# Summary of the method: (§2)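 Seeds were planted and treated preemergence with test chemical in a non-phytotoxic solvent mixture containing surfactant. Postemergence applications of the same formulation went onto plants 2 to 18 cm tall (1- to 4-leaf stage). A dash marks no test result.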
# kochia = experiment: Test C pre-/postemergence test; type: in vivo, Kochia scoparia
# Summary of the method: as §2
# Surinam grass = experiment: Test C pre-/postemergence test; type: in vivo, Brachiaria decumbens; conditions: for Surinam Grass plant response rating: preemergence, scale 0 (no effect) to 100 (complete control)
# Summary of the method: as §2
# blackgrass = experiment: Test C pre-/postemergence test; type: in vivo, Alopecurus myosuroides
# Summary of the method: as §2
# cocklebur = experiment: Test C pre-/postemergence test; type: in vivo, Xanthium strumarium
# Summary of the method: as §2
# catchweed bedstraw = experiment: Test C pre-/postemergence test; type: in vivo, Galium aparine
# Text: Seeds of plant species selected from blackgrass (Alopecurus myosuroides), downy brome (Bromus tectorum), green foxtail (Setaria viridis), Italian ryegrass (Lolium multiflorum), wheat (Triticum aestivum), wild oat (Avena fatua), catchweed bedstraw (Galium aparine), Russian thistle (Salsola kali), […] (Cynodon dactylon), Surinam grass (Brachiaria decumbens), cocklebur (Xanthium strumarium), corn (Zea mays), crabgrass (Digitaria sanguinalis), woolly cupgrass (Eriochloa villosa), giant foxtail (Setaria faberii), Goosegrass (Eleusin indica), johnsongrass (Sorghum halepense), kochia (Kochia scoparia), lambsquarters (Chenopodium album), morningglory (Ipomoea coccinea), eastern black nightshade (Solanum ptycanthum), yellow nutsedge (Cyperus esculentus), pigweed (Amaranthus retroflexus), common ragweed (Ambrosia elation), soybean (Glycine max), common (oilseed) sunflower (Helianthus annuus), and velvetleaf (Abutilon theophrasti) were planted and treated preemergence with test chemicals formulated in a non-phytotoxic solvent mixture which included a surfactant. At the same time, plants selected from these crop and weed species and also winter barley (Hordeum vulgare), canarygrass (Phalaris minor), and chickweed (Stellaria media) were treated with postemergence applications of some of the test chemicals formulated in the same manner. Plants ranged in height from 2 to 18 cm (1- to 4-leaf stage) for postemergence treatments. […] At time of treatment, test pots were flooded to 3 cm above the soil surface, treated by application of test compounds directly to the paddy water, and then maintained at that water depth for the duration of the test. […] A dash (-) response means no test result.
# giant foxtail [1] = experiment: Test C pre-/postemergence test; type: in vivo, Setaria faberii
# Summary of the method: as §2
# common ragweed = experiment: Test C pre-/postemergence test; type: in vivo, Ambrosia elation
# Summary of the method: as §2
# wheat [2] = experiment: Test A pre-/postemergence greenhouse test; type: in vivo, Triticum aestivum; conditions: for Wheat plant response rating: 0 to 100 scale
# Summary of the method: as §1
# redroot pigweed = experiment: Test A pre-/postemergence greenhouse test; type: in vivo, Amaranthus retroflexus; conditions: for Pigweed plant response rating: 0 to 100 scale
# Summary of the method: as §1
# velvetleaf = experiment: Test C pre-/postemergence test; type: in vivo, Abutilon theophrasti; conditions: for Velvetleaf plant response rating: preemergence, scale 0 (no effect) to 100 (complete control)
# Summary of the method: as §2
# wild oat = experiment: Test C pre-/postemergence test; type: in vivo, Avena fatua
# Summary of the method: as §2
# wheat [3] = experiment: Test C pre-/postemergence test; type: in vivo, Triticum aestivum; conditions: for Wheat plant response rating: preemergence, scale 0 (no effect) to 100 (complete control)
# Summary of the method: as §2
# lambsquarters = experiment: Test C pre-/postemergence test; type: in vivo, Chenopodium album
# Summary of the method: as §2
# downy brome = experiment: Test C pre-/postemergence test; type: in vivo, Bromus tectorum
# Summary of the method: as §2
# [4] = tested on: common (oilseed) sunflower; experiment: Test C pre-/postemergence test; type: in vivo, Helianthus annuus; conditions: for Sunflower plant response rating: preemergence, scale 0 (no effect) to 100 (complete control)
# Summary of the method: as §2
# eastern black nightshade = experiment: Test C pre-/postemergence test; type: in vivo, Solanum ptycanthum
# Summary of the method: as §2
# giant foxtail [5] = experiment: Test A pre-/postemergence greenhouse test; type: in vivo, Setaria faberi; conditions: for Foxtail, Giant plant response rating: 0 to 100 scale
# Summary of the method: as §1
# [6] = Postemergence, 125 g ai/ha, 0 is no effect, 100 is complete control
# [7] = Postemergence, 500 g ai/ha, 0 is no effect, 100 is complete control
# [8] = Preemergence, 125 g ai/ha, 0 no effect, 100 complete control
# [9] = Preemergence, 500 g ai/ha, 0 to 100 scale where 0 is no effect and 100 is complete control
# [10] = 31 g ai/ha, Preemergence, scale 0 to 100
# [11] = 62 g ai/ha, preemergence, scale 0 (no effect) to 100 (complete control)
# [12] = preemergence, 125 g ai/ha, scale 0 (no effect) to 100 (complete control)
structure (smiles),measurement,setting,value
Cn1nc(C(F)(F)F)c(C[S+]([O-])c2ccc(Br)c[n+]2[O-])c1OC(F)F (racemic) [Compound 16],Morningglory plant response rating,morningglory; [6],20
same,Morningglory plant response rating,morningglory; [7],60
same,Morningglory plant response rating,morningglory; [8],30
same,"Plant response rating, Morningglory",morningglory; [9],80
same,"Cupgrass, Woolly plant response rating",woolly cupgrass; [10],20
same,"Cupgrass, Woolly plant response rating",woolly cupgrass; [11],80
same,"Plant response rating (0 to 100), Cupgrass, Woolly","woolly cupgrass; Preemergence, 250 g ai/ha",100
same,"Cupgrass, Woolly plant response rating",woolly cupgrass; [12],95
same,Kochia plant response rating,kochia; [10],20
same,Kochia plant response rating,kochia; [11],100
same,"Plant response rating (0 to 100), Kochia","kochia; Preemergence, 250 g ai/ha",100
same,Kochia plant response rating,kochia; [12],100
same,Surinam Grass plant response rating,Surinam grass; 62 g ai/ha,55
same,"Plant response rating (0 to 100), Surinam Grass","Surinam grass; Preemergence, 250 g ai/ha",100
same,Surinam Grass plant response rating,Surinam grass; 125 g ai/ha,100
same,Blackgrass plant response rating,blackgrass; [10],0
same,Blackgrass plant response rating,blackgrass; [11],50
same,Blackgrass plant response rating,blackgrass; [12],50
same,Cocklebur plant response rating,cocklebur; [10],0
same,Cocklebur plant response rating,cocklebur; [11],0
same,"Plant response rating (0 to 100), Cocklebur","cocklebur; Preemergence, 250 g ai/ha",0
same,Cocklebur plant response rating,cocklebur; [12],0
same,Galium plant response rating,catchweed bedstraw; [10],0
same,Galium plant response rating,catchweed bedstraw; [11],100
same,"Plant response rating (0 to 100), Galium","catchweed bedstraw; Preemergence, 250 g ai/ha",100
same,Galium plant response rating,catchweed bedstraw; [12],100
same,"Foxtail, Giant plant response rating",giant foxtail [1]; [10],80
same,"Foxtail, Giant plant response rating",giant foxtail [1]; [11],100
same,"Plant response rating (0 to 100), Foxtail, Giant","giant foxtail [1]; Preemergence, 250 g ai/ha",100
same,Ragweed plant response rating,common ragweed; [10],10
same,Ragweed plant response rating,common ragweed; [11],45
same,Ragweed plant response rating,common ragweed; [12],100
same,Wheat plant response rating,wheat [2]; [6],60
same,Wheat plant response rating,wheat [2]; [7],70
same,Wheat plant response rating,wheat [2]; [8],60
same,"Plant response rating, Wheat",wheat [2]; [9],80
same,Pigweed plant response rating,redroot pigweed; [6],20
same,Pigweed plant response rating,redroot pigweed; [7],70
same,Pigweed plant response rating,redroot pigweed; [8],100
same,"Plant response rating, Pigweed",redroot pigweed; [9],100
same,Velvetleaf plant response rating,velvetleaf; 62 g ai/ha,100
same,"Plant response rating (0 to 100), Velvetleaf","velvetleaf; Preemergence, 250 g ai/ha",100
same,Velvetleaf plant response rating,velvetleaf; 125 g ai/ha,100
same,"Oat, Wild plant response rating",wild oat; [10],0
same,"Oat, Wild plant response rating",wild oat; [11],70
same,"Plant response rating (0 to 100), Oat, Wild","wild oat; Preemergence, 250 g ai/ha",80
same,"Oat, Wild plant response rating",wild oat; [12],75
same,Wheat plant response rating,wheat [3]; 62 g ai/ha,30
same,"Plant response rating (0 to 100), Wheat","wheat [3]; Preemergence, 250 g ai/ha",90
same,Wheat plant response rating,wheat [3]; 125 g ai/ha,60
same,Lambsquarters plant response rating,lambsquarters; [10],80
same,Lambsquarters plant response rating,lambsquarters; [11],90
same,"Plant response rating (0 to 100), Lambsquarters","lambsquarters; Preemergence, 250 g ai/ha",100
same,Lambsquarters plant response rating,lambsquarters; [12],100
same,"Bromegrass, Downy plant response rating",downy brome; [10],20
same,"Bromegrass, Downy plant response rating",downy brome; [11],50
same,"Plant response rating (0 to 100), Bromegrass, Downy","downy brome; Preemergence, 250 g ai/ha",60
same,"Bromegrass, Downy plant response rating",downy brome; [12],55
same,Sunflower plant response rating,[4]; 62 g ai/ha,30
same,"Plant response rating (0 to 100), Sunflower","[4]; Preemergence, 250 g ai/ha",85
same,Sunflower plant response rating,[4]; 125 g ai/ha,50
same,Nightshade plant response rating,eastern black nightshade; [10],100
same,Nightshade plant response rating,eastern black nightshade; [11],100
same,"Plant response rating (0 to 100), Nightshade","eastern black nightshade; Preemergence, 250 g ai/ha",100
same,Nightshade plant response rating,eastern black nightshade; [12],100
same,"Foxtail, Giant plant response rating",giant foxtail [5]; [6],80
same,"Foxtail, Giant plant response rating",giant foxtail [5]; [7],90
same,"Foxtail, Giant plant response rating",giant foxtail [5]; [8],100
same,"Plant response rating, Foxtail, Giant",giant foxtail [5]; [9],100
